Experimental data as given in the OligoGym collection.
Several values for one entry are separate records, joined by “and”; a condition that tells them apart may be missing. Equal values may be shown once. After the bases stand the sugars from the 5' end (letter, count) and the backbone: PS all phosphorothioate, else s phosphorothioate and o phosphodiester by linkage. Methylation of C is not given here. e = 2'-O-(2-methoxyethyl) (MOE); l = locked nucleic acid (LNA); k = constrained ethyl (cEt); d = 2'-deoxy (DNA)

Experiments:
APOL1 = details: ASO
SNHG14 = details: ASO, Human Neuronal Cell

Sequence | target mRNA inhibition (APOL1; A431, 2 µM) | target mRNA inhibition (SNHG14; 7.5 µM) | further results
AACACATCATTGGGTT (sugars kkkddddkekeddddd, PS) | 21% |  | 
AACATTGAAACACCAG (sugars k4 d9 k3, PS) |  |  | target mRNA inhibition (APOL1; A431, 0.0625 µM): 35%; target mRNA inhibition (APOL1; A431, 0.25 µM): 71%; target mRNA inhibition (APOL1; A431, 1 µM): 89%
AACGCAATGCTGACTT (sugars kkkddddkekeddddd, PS) | 83% |  | 
AAGATTGGCTCTGGCT (sugars kkddddekekeddddd, PS) | 66% |  | 
AAGATTGGCTCTGGCT (sugars kkddddkdkdkddddd, PS) | 65% |  | 
AAGCTTTAAACTCAGG (sugars k2 d4 e3 k2 d5, PS) | 95% |  | target mRNA inhibition (APOL1; A431, 0.0156 µM): 15%; target mRNA inhibition (APOL1; A431, 0.0625 µM): 48%; target mRNA inhibition (APOL1; A431, 0.25 µM): 76%; target mRNA inhibition (APOL1; A431, 1 µM): 92%
AAGCTTTAAACTCAGG (sugars k3 d4 k3 e1 d5, PS) | 72% |  | 
AAGCTTTAAACTCAGG (sugars kkddddkekekddddd, PS) | 48% |  | 
AAGTATTGCCAGCTAA (sugars k2 d4 e3 k2 d5, PS) | 63% |  | 
AAGTATTGCCAGCTAA (sugars kdddddkekekddddd, PS) | 54% |  | 
AAGTCAGTACAGAGCA (sugars k4 d9 k3, PS) |  |  | target mRNA inhibition (APOL1; A431, 0.0625 µM): 52%; target mRNA inhibition (APOL1; A431, 0.25 µM): 79%; target mRNA inhibition (APOL1; A431, 1 µM): 89%
AATAATGGTAGGTCTA (sugars k4 d9 k3, PS) |  |  | target mRNA inhibition (APOL1; A431, 0.0625 µM): 41%; target mRNA inhibition (APOL1; A431, 0.25 µM): 71%; target mRNA inhibition (APOL1; A431, 1 µM): 84%
AATTCTATTAGAGGGC (sugars kkddddekekeddddd, PS) | 79% |  | 
ACACATCATTGGGTTA (sugars k2 d4 e3 k2 d5, PS) | 51% |  | 
ACACATCATTGGGTTA (sugars k4 d9 k3, PS) |  |  | target mRNA inhibition (APOL1; A431, 0.0625 µM): 54%; target mRNA inhibition (APOL1; A431, 0.25 µM): 75%; target mRNA inhibition (APOL1; A431, 1 µM): 87%
ACACATCATTGGGTTA (sugars kkddddkekekkdddd, PS) | 20% |  | 
ACACATCATTGGGTTA (sugars kkkddddkdkdkdddd, PS) | 48% |  | 
ACATCATTGGGTTATG (sugars kdddddkekekddddd, PS) | 89% |  | 
ACATCATTGGGTTATG (sugars kddddkekekeddddd, PS) | 76% |  | 
ACGCAATGCTGACTTG (sugars kkddddkekekkdddd, PS) | 72% |  | 
ACTCAAGTCAGTACAG (sugars k4 d9 k3, PS) |  |  | target mRNA inhibition (APOL1; A431, 0.0625 µM): 27%; target mRNA inhibition (APOL1; A431, 0.25 µM): 58%; target mRNA inhibition (APOL1; A431, 1 µM): 77%
ACTCCTTATGTTTTGA (sugars k4 d9 k3, PS) |  |  | target mRNA inhibition (APOL1; A431, 0.0625 µM): 46%; target mRNA inhibition (APOL1; A431, 0.25 µM): 75%; target mRNA inhibition (APOL1; A431, 1 µM): 91%
ACTGTTCTAACTCTTG (sugars k4 d9 k3, PS) |  |  | target mRNA inhibition (APOL1; A431, 0.0625 µM): 85%; target mRNA inhibition (APOL1; A431, 0.25 µM): 92%; target mRNA inhibition (APOL1; A431, 1 µM): 95%

Sequence | target mRNA inhibition (APOL1; A431, 2 µM) | target mRNA inhibition (SNHG14; 7.5 µM) | further results
ACTTTATACCAGTGTC (sugars kkkddddkekeddddd, PS) | 65% |  | 
AGAACTCAAGTCAGTA (sugars k4 d9 k3, PS) |  |  | target mRNA inhibition (APOL1; A431, 0.0625 µM): 38% and 62%; target mRNA inhibition (APOL1; A431, 0.25 µM): 67% and 83%; target mRNA inhibition (APOL1; A431, 1 µM): 86% and 88%
AGATTGGCTCTGGCTC (sugars kddddkekekeddddd, PS) | 23% |  | 
AGCTTTAAACTCAGGT (sugars kddddkekekeddddd, PS) | 52% |  | 
AGCTTTAAACTCAGGT (sugars kkddddkekekkdddd, PS) | 16% |  | 
AGGTTTGGATGGAAGG (sugars k4 d9 k3, PS) |  |  | target mRNA inhibition (APOL1; A431, 0.0625 µM): 36%; target mRNA inhibition (APOL1; A431, 0.25 µM): 73%; target mRNA inhibition (APOL1; A431, 1 µM): 88%
AGTATTGCCAGCTAAG (sugars k2 d4 e4 k2 d4, PS) | 59% |  | 
AGTATTGCCAGCTAAG (sugars k3 d4 k3 e1 d5, PS) | 89% |  | 
AGTATTGTTTTTGTGG (sugars k2 d4 e3 k2 d5, PS) | 90% |  | 
AGTTTTGTAAGTGCAA (sugars k2 d4 e3 k2 d5, PS) | 94% |  | target mRNA inhibition (APOL1; A431, 0.0156 µM): 10%; target mRNA inhibition (APOL1; A431, 0.0625 µM): 49%; target mRNA inhibition (APOL1; A431, 0.25 µM): 79%; target mRNA inhibition (APOL1; A431, 1 µM): 93%
AGTTTTGTAAGTGCAA (sugars kkdddddkekeddddd, PS) | 92% |  | 
AGTTTTGTAAGTGCAA (sugars kkddddkekekddddd, PS) | 81% |  | 
ATATCAGATGGGTACT (sugars kkddddekekeddddd, PS) | 27% |  | 
ATCAGATGGGTACTTC (sugars kddddkekekeddddd, PS) | 43% |  | 
ATCAGATGGGTACTTC (sugars kkkddddkekekdddd, PS) | 54% |  | 
ATGCTAATTTTCTGAC (sugars kkddddekekeddddd, PS) | 95% |  | 
ATTCAGAATTTCCACT (sugars kkddddkekekddddd, PS) | 76% |  | 
ATTCAGAATTTCCACT (sugars kkddddkekekkdddd, PS) | 57% |  | 
ATTCAGAATTTCCACT (sugars kkkddddkekekdddd, PS) | 56% |  | 
TTCTACTATACTTTCCTCT (sugars ldddlddddddddddldll, PS) |  | 53% | 
TTCTACTATACTTTCCTCT (sugars ldlddddddddddddldll, PS) |  | 63% | 
TTCTACTATACTTTCCTCT (sugars ldldddddddddddlddll, PS) |  | 59% | 
TTCTGTATACACCATCC (sugars l1 d1 l1 d12 l2, PS) |  | 62% | 

Sequence | target mRNA inhibition (APOL1; A431, 2 µM) | target mRNA inhibition (SNHG14; 7.5 µM) | further results
TTCTGTATACACCATCC (sugars l1 d12 l1 d1 l2, PS) |  | 62% | 
TTCTGTATACACCATCC (sugars l1 d14 l2, PS) |  | 46% | 
TTCTGTATACACCATCC (sugars l3 d12 l2, PS) |  | 58% | 
TTCTGTATACACCATCC (sugars ldddlddddddddldll, PS) |  | 65% | 
TTCTGTATACACCATCC (sugars lddlddddddddlddll, PS) |  | 60% | 
TTCTGTATACACCATCCC (sugars l1 d11 l1 d3 l2, PS) |  | 54% | 
TTCTGTATACACCATCCC (sugars l1 d15 l2, PS) |  | 58% | 
TTCTTGTTTATCCCAA (sugars l2 d10 l4, PS) |  |  | target mRNA inhibition (SNHG14; 0.2 µM): 67%; target mRNA inhibition (SNHG14; 1 µM): 71%
TTGATTCAATTCCCTTA (sugars l2 d10 l1 d1 l3, PS) |  | 68% | 
TTGATTCAATTCCCTTA (sugars l2 d11 l1 d1 l2, PS) |  | 60% | 
TTGATTCAATTCCCTTA (sugars lddlldddddddlldll, PS) |  | 66% | 
TTGATTCAATTCCCTTA (sugars lldlddddddddlddll, PS) |  | 63% | 
TTGTCTCTAATCCTAT (sugars l2 d10 l4, PS) |  |  | target mRNA inhibition (SNHG14; 0.2 µM): 38%; target mRNA inhibition (SNHG14; 1 µM): 54%
TTTACACTTAATTATACTTC (sugars lldddldddddddlllldll, PS) |  | 51% | 
TTTACACTTAATTATACTTC (sugars lldllddddddddldlllll, PS) |  | 29% | 
TTTACACTTAATTATACTTC (sugars lllddldddddddllldlll, PS) |  | 22% | 
TTTACACTTAATTATACTTC (sugars llldlddddddddlddllll, PS) |  | 55% | 
TTTACATTGACACCTA (sugars l2 d10 l4, PS) |  |  | target mRNA inhibition (SNHG14; 0.2 µM): 20%; target mRNA inhibition (SNHG14; 1 µM): 31%
TTTATACCTTTCTTTAAC (sugars l2 d12 l4, PS) |  |  | target mRNA inhibition (SNHG14; 0.2 µM): 4%; target mRNA inhibition (SNHG14; 1 µM): 21%
TTTATCAATATCTTCTCAC (sugars lldldlddddddllddlll, PS) |  | 58% | 
TTTATCAATATCTTCTCAC (sugars lldlllddddddlddddll, PS) |  | 65% | 
TTTATCAATATCTTCTCACT (sugars lddldldddddddddddlll, PS) |  | 57% | 
TTTATCTCATGACCAC (sugars l2 d10 l4, PS) |  |  | target mRNA inhibition (SNHG14; 0.2 µM): 53%; target mRNA inhibition (SNHG14; 1 µM): 63%

Sequence | target mRNA inhibition (APOL1; A431, 2 µM) | target mRNA inhibition (SNHG14; 7.5 µM) | further results
TTTATTTCCATTTATTTTC (sugars ldldlddddddddlldlll, PS) |  | 53% | 
TTTATTTCCATTTATTTTC (sugars lllddldddddddllldll, PS) |  | 51% | 
TTTATTTCCATTTATTTTCA (sugars lddddldddddddldlddll, PS) |  | 46% | 
TTTATTTCCATTTATTTTCA (sugars ldddlldddddddddlldll, PS) |  | 65% | 
TTTATTTCCATTTATTTTCA (sugars ldldddddddddddlddlll, PS) |  | 60% | 
TTTATTTCCATTTATTTTCA (sugars lldldlddddddddldldll, PS) |  | 63% | 
TTTCAGCTTTTAACCAGAGT (sugars l2 d15 l3, PS) |  | 67% | 
TTTCCATTTATTTCCATTTA (sugars l2 d2 l1 d12 l3, PS) |  | 62% | 
TTTCCATTTATTTCCATTTA (sugars lddlddlddddddddlddll, PS) |  | 61% | 
TTTCCTATATTCTCTTA (sugars l4 d11 l2, PS) |  |  | target mRNA inhibition (SNHG14; 0.2 µM): 56%; target mRNA inhibition (SNHG14; 1 µM): 64%
TTTCTTACTATCTTCA (sugars l4 d10 l2, PS) |  |  | target mRNA inhibition (SNHG14; 0.2 µM): 53%; target mRNA inhibition (SNHG14; 1 µM): 61%
TTTGACATTCCATCTCC (sugars l2 d12 l3, PS) |  |  | target mRNA inhibition (SNHG14; 0.2 µM): 38%; target mRNA inhibition (SNHG14; 1 µM): 55%
TTTTAACCAGAGTGGCA (sugars l3 d11 l3, PS) |  | 56% | 
TTTTATACCTTTCTTTAACC (sugars l1 d15 l1 d1 l2, PS) |  | 24% | 
TTTTATACCTTTCTTTAACC (sugars ldddlddddddddlddddll, PS) |  | -9% | 
TTTTTATACCTTTCTTTAAC (sugars llldlddddddddldldlll, PS) |  | 62% | 
TTTTTTCTTACTATCTTCAA (sugars ldddddldddddddllddll, PS) |  | 43% | 
TTTTTTTCTTACTATCTTCA (sugars l1 d14 l1 d2 l2, PS) |  | 17% | 
TTTTTTTCTTACTATCTTCA (sugars l2 d3 l1 d12 l2, PS) |  | 14% | 
TTTTTTTCTTACTATCTTCA (sugars lldldddddddddlddddll, PS) |  | 49% | 
